Several values for one entry are separate records, joined by “and”; a condition that tells them apart may be missing. Equal entries are not always repeated.
System: BDF1 mice, Adenocarcinoma 755 s.c., tumor weight T/C
Assay: NCI In Vivo Anticancer Drug Screen. Data for tumor model Adenocarcinoma 755 (subcutaneous) in B6D2F1 (BDF1) mice
Conditions: endpoint: mean tumor weight, higher = larger tumour
Method in brief: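 Transplantable tumor implanted; mice dosed with compound or vehicle; survival or tumor size recorded; ratio of treated to vehicle control reported.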

[1] = dose: 60.0 mg/kg/injection, schedule: Q01DX011 (ip), vehicle: carboxymethylcellulose (CMC)
[2] = dose: 50.0 mg/kg/injection, schedule: Q01DX011 (ip), vehicle: carboxymethylcellulose (CMC)
[3] = dose: 100.0 mg/kg/injection, schedule: Q01DX011 (ip), vehicle: carboxymethylcellulose (CMC)
[4] = dose: 200.0 mg/kg/injection, schedule: Q01DX011 (ip), vehicle: carboxymethylcellulose (CMC)
[5] = dose: 15.0 mg/kg/injection, schedule: Q01DX011 (ip), vehicle: methylcellulose (MC)
[6] = dose: 12.0 mg/kg/injection, schedule: Q01DX011 (ip), vehicle: carboxymethylcellulose (CMC)

`CCCCn1cnc2c(SC)nc(N)nc21` was tested, and the T/C (dose: 3.8 mg/kg/injection, schedule: Q01DX011 (ip), vehicle: carboxymethylcellulose (CMC)) was 95 % of control, the T/C (dose: 7.5 mg/kg/injection, schedule: Q01DX011 (ip), vehicle: carboxymethylcellulose (CMC)) was 49 % of control and the T/C (dose: 9.0 mg/kg/injection, schedule: Q01DX011 (ip), vehicle: carboxymethylcellulose (CMC)) was 79 % of control. For the same molecule, the T/C (dose: 13.0 mg/kg/injection, schedule: Q01DX011 (ip), vehicle: carboxymethylcellulose (CMC)) was 69 % of control, the T/C (dose: 15.0 mg/kg/injection, schedule: Q01DX011 (ip), vehicle: carboxymethylcellulose (CMC)) was 30 % of control and the T/C (dose: 20.0 mg/kg/injection, schedule: Q01DX011 (ip), vehicle: carboxymethylcellulose (CMC)) was 44 % of control. For the same molecule, the T/C [1] was 3 % of control and 4 % of control and the T/C (dose: 115.0 mg/kg/injection, schedule: Q01DX011 (ip), vehicle: carboxymethylcellulose (CMC)) was 2 % of control and 3 % of control.
For `CCCCCCCCCCCCCCCC[n+]1ccccc1`, the T/C (dose: 0.12 mg/kg/injection, schedule: Q01DX011 (ip), vehicle: water) was 89 % of control, the T/C (dose: 0.25 mg/kg/injection, schedule: Q01DX011 (ip), vehicle: water) was 79 % of control and the T/C (dose: 0.5 mg/kg/injection, schedule: Q01DX011 (ip), vehicle: water) was 89 % of control.
For `COc1ccc(C(=O)OCC2OC(n3cnc4c(=S)nc(N)[nH]c43)C(OC(=O)c3ccc(OC)cc3)C2OC(=O)c2ccc(OC)cc2)cc1` (configuration not stated), the T/C (dose: 25.0 mg/kg/injection, schedule: Q01DX011 (ip), vehicle: carboxymethylcellulose (CMC)) was 88 % of control, the T/C [2] was 107 % of control and the T/C [3] was 48 % of control. For the same molecule, the T/C [4] was 7 % of control.
`CCN(CC)c1ccc2cc3ccc(=[N+](CC)CC)cc-3oc2c1` was tested, and the T/C (dose: 0.64 mg/kg/injection, schedule: Q01DX011 (ip), vehicle: carboxymethylcellulose (CMC)) was 33 % of control, the T/C (dose: 0.66 mg/kg/injection, schedule: Q01DX011 (ip), vehicle: carboxymethylcellulose (CMC)) was 47 % of control and the T/C (dose: 1.27 mg/kg/injection, schedule: Q01DX011 (ip), vehicle: carboxymethylcellulose (CMC)) was 119 % of control. For the same molecule, the T/C (dose: 1.32 mg/kg/injection, schedule: Q01DX011 (ip), vehicle: carboxymethylcellulose (CMC)) was 90 % of control, the T/C (dose: 1.7 mg/kg/injection, schedule: Q01DX011 (ip), vehicle: carboxymethylcellulose (CMC)) was 91 % of control and the T/C (dose: 2.64 mg/kg/injection, schedule: Q01DX011 (ip), vehicle: carboxymethylcellulose (CMC)) was 81 % of control. The T/C (dose: 4.0 mg/kg/injection, schedule: Q01DX011 (ip), vehicle: other) was 115 % of control, the T/C (dose: 5.0 mg/kg/injection, schedule: Q01DX011 (ip), vehicle: methylcellulose (MC)) was 70 % of control and the T/C (dose: 5.1 mg/kg/injection, schedule: Q01DX011 (ip), vehicle: carboxymethylcellulose (CMC)) was 53 % of control. For the same molecule, the T/C (dose: 5.28 mg/kg/injection, schedule: Q01DX011 (ip), vehicle: carboxymethylcellulose (CMC)) was 100 % of control, the T/C (dose: 8.0 mg/kg/injection, schedule: Q01DX011 (ip), vehicle: other) was 114 % of control and the T/C (dose: 12.0 mg/kg/injection, schedule: Q01DX011 (ip), vehicle: other) was 90 % of control. The T/C [5] was 75 % of control.
For `O=Cc1ccccc1`, the T/C (dose: 3.12 mg/kg/injection, schedule: Q01DX011 (ip), vehicle: Klucel (hydroxypropylcellulose) (HPC)) was 80 % of control, the T/C (dose: 6.25 mg/kg/injection, schedule: Q01DX011 (ip), vehicle: Klucel (hydroxypropylcellulose) (HPC)) was 52 % of control and the T/C (dose: 12.5 mg/kg/injection, schedule: Q01DX011 (ip), vehicle: Klucel (hydroxypropylcellulose) (HPC)) was 72 % of control. The T/C (dose: 25.0 mg/kg/injection, schedule: Q01DX011 (ip), vehicle: Klucel (hydroxypropylcellulose) (HPC)) was 109 % of control, the T/C (dose: 50.0 mg/kg/injection, schedule: Q01DX011 (ip), vehicle: Klucel (hydroxypropylcellulose) (HPC)) was 106 % of control and the T/C (dose: 100.0 mg/kg/injection, schedule: Q01DX011 (ip), vehicle: Klucel (hydroxypropylcellulose) (HPC)) was 80 % of control. The T/C (dose: 200.0 mg/kg/injection, schedule: Q01DX011 (ip), vehicle: Klucel (hydroxypropylcellulose) (HPC)) was 55 % of control and the T/C (dose: 400.0 mg/kg/injection, schedule: Q01DX011 (ip), vehicle: Klucel (hydroxypropylcellulose) (HPC)) was 56 % of control.
In the case of `C=CC(O)CN1CC1(C)C` (configuration not stated) (tested in a mixture with another compound), the T/C (dose: 1.9 mg/kg/injection, schedule: Q01DX011 (ip), vehicle: methylcellulose (MC)) is reported as 99 % of control, the T/C (dose: 3.75 mg/kg/injection, schedule: Q01DX011 (ip), vehicle: methylcellulose (MC)) is reported as 107 % of control and the T/C [5] is reported as 75 % of control.
With `CCCOP(=S)(N1CC1C)N1CC1(C)C` (configuration not stated) the T/C (dose: 0.5 mg/kg/injection, schedule: Q01DX011 (ip), vehicle: carboxymethylcellulose (CMC)) was 68 % of control, the T/C (dose: 1.0 mg/kg/injection, schedule: Q01DX011 (ip), vehicle: carboxymethylcellulose (CMC)) was 104 % of control and the T/C [6] was 79 % of control. For the same molecule, the T/C (dose: 24.0 mg/kg/injection, schedule: Q01DX011 (ip), vehicle: carboxymethylcellulose (CMC)) was 61 % of control.
For `O=C(O)CCC(=O)Nc1nccs1`, the T/C (dose: 150.0 mg/kg/injection, schedule: Q01DX011 (ip), vehicle: carboxymethylcellulose (CMC)) was 71 % of control, the T/C (dose: 300.0 mg/kg/injection, schedule: Q01DX011 (ip), vehicle: carboxymethylcellulose (CMC)) was 83 % of control and the T/C (dose: 600.0 mg/kg/injection, schedule: Q01DX011 (ip), vehicle: carboxymethylcellulose (CMC)) was 63 % of control.
With `CCCCN(C)N=Nc1ccc(OCC(=O)NN)cc1` the T/C [2] was 75 % of control.
For `c1ccc(CSc2ncnc3nc[nH]c23)nc1`, the T/C (dose: 0.75 mg/kg/injection, schedule: Q01DX011 (ip), vehicle: carboxymethylcellulose (CMC)) was 102 % of control, the T/C (dose: 1.5 mg/kg/injection, schedule: Q01DX011 (ip), vehicle: carboxymethylcellulose (CMC)) was 40 % of control and the T/C (dose: 3.0 mg/kg/injection, schedule: Q01DX011 (ip), vehicle: carboxymethylcellulose (CMC)) was 26 % of control. The T/C (dose: 6.0 mg/kg/injection, schedule: Q01DX011 (ip), vehicle: carboxymethylcellulose (CMC)) was 9 % of control, the T/C [6] was 7 % of control and the T/C [2] was 5 % of control. The T/C [3] was 4 % of control.
With `CCc1c(Cl)nc(N)nc1Nc1ccccc1Cl` the T/C [5] was 105 % of control, the T/C (dose: 62.0 mg/kg/injection, schedule: Q01DX011 (ip), vehicle: methylcellulose (MC)) was 103 % of control and the T/C (dose: 125.0 mg/kg/injection, schedule: Q01DX011 (ip), vehicle: methylcellulose (MC)) was 101 % of control.
For `Nc1[nH]cnc(=S)c1NC=O`, the T/C (dose: 30.0 mg/kg/injection, schedule: Q01DX011 (ip), vehicle: carboxymethylcellulose (CMC)) was 84 % of control, the T/C [1] was 63 % of control and the T/C (dose: 120.0 mg/kg/injection, schedule: Q01DX011 (ip), vehicle: carboxymethylcellulose (CMC)) was 86 % of control. For the same molecule, the T/C [4] was 101 % of control, the T/C (dose: 240.0 mg/kg/injection, schedule: Q01DX011 (ip), vehicle: carboxymethylcellulose (CMC)) was 26 % of control and the T/C (dose: 400.0 mg/kg/injection, schedule: Q01DX011 (ip), vehicle: carboxymethylcellulose (CMC)) was 29 % of control.
With `Nc1ncnc2c1ncn2C1CCCCC1` the T/C (dose: 34.0 mg/kg/injection, schedule: Q01DX011 (oral), vehicle: carboxymethylcellulose (CMC)) was 75 % of control, the T/C (dose: 68.0 mg/kg/injection, schedule: Q01DX011 (oral), vehicle: carboxymethylcellulose (CMC)) was 120 % of control and the T/C (dose: 136.0 mg/kg/injection, schedule: Q01DX011 (oral), vehicle: carboxymethylcellulose (CMC)) was 78 % of control. For the same molecule, the T/C (dose: 272.0 mg/kg/injection, schedule: Q01DX011 (oral), vehicle: carboxymethylcellulose (CMC)) was 106 % of control.
In the case of `CC(C)n1cc2c(N)ncnc2n1`, the T/C (dose: 12.5 mg/kg/injection, schedule: Q01DX011 (ip), vehicle: methylcellulose (MC)) is reported as 55 % of control, the T/C (dose: 12.5 mg/kg/injection, schedule: Q01DX011 (ip), vehicle: saline) is reported as 74 % of control and the T/C (dose: 25.0 mg/kg/injection, schedule: Q01DX011 (ip), vehicle: methylcellulose (MC)) is reported as 18 % of control. For the same molecule, the T/C (dose: 25.0 mg/kg/injection, schedule: Q01DX011 (ip), vehicle: saline) was 14 % of control.
For `NCC(=O)Nc1ccc(O)cc1`, the T/C [4] was 22 % of control and 42 % of control.

From PubChem BioAssay AID180 (DTP/NCI, 2004)
